# Source: ChEMBL document CHEMBL1134540, “ElogD(oct): a tool for lipophilicity determination in drug discovery. 2. Basic and neutral compounds” (J Med Chem, 2001)
# Test: Partition coefficient (logD7.4)
# Details: octanol/water, pH 7.4
row,Compound,logD
1,CN(C)CCC(c1ccc(Cl)cc1)c1ccccn1 (stereo unspecified) [CHLORPHENIRAMINE],1.41
2,CNC(=C[N+](=O)[O-])NCCSCc1csc(CN(C)C)n1 [NIZATIDINE],-0.52
3,CCCCNc1ccc(C(=O)OCCN(C)C)cc1 [TETRACAINE],2.29
4,Oc1cc(Cl)cc(Cl)c1,3.68
5,CSc1ccc2c(c1)N(CCC1CCCCN1C)c1ccccc1S2 (stereo unspecified) [THIORIDAZINE],3.34
6,COc1ccc2[nH]c([S+]([O-])Cc3ncc(C)c(OC)c3C)nc2c1 (stereo unspecified) [OMEPRAZOLE],2.3
7,CS(=O)(=O)c1ccc([C@@H](O)[C@@H](CO)NC(=O)C(Cl)Cl)cc1 [THIAMPHENICOL],-0.27
8,CC(C)(C)NCC(O)c1cc(O)cc(O)c1 (stereo unspecified),-1.35
9,C=CCc1ccccc1OCC(O)CNC(C)C (stereo unspecified) [ALPRENOLOL],0.97
10,c1ccc(-c2ccc(C(c3ccccc3)n3ccnc3)cc2)cc1 (stereo unspecified) [BIFONAZOLE],4.77
11,COC1=CC(=O)C[C@@H](C)[C@]12Oc1c(Cl)c(OC)cc(OC)c1C2=O [GRISEOFULVIN],2.18
12,COC(=O)[C@H]1[C@@H](OC(=O)c2ccccc2)C[C@@H]2CC[C@H]1N2C [COCAINE],1.05
13,NC(=O)N1c2ccccc2C=Cc2ccccc21 [CARBAMAZEPINE],2.19
14,CC/C(=C(/CC)c1ccc(O)cc1)c1ccc(O)cc1 [DIETHYLSTILBESTROL],5.07
15,CCOC(=O)C1=C(COCCN)NC(C)=C(C(=O)OC)C1c1ccccc1Cl (stereo unspecified) [AMLODIPINE],1.66
16,O=C(NCC1CCCCN1)c1cc(OCC(F)(F)F)ccc1OCC(F)(F)F (stereo unspecified) [FLECAINIDE],0.97
17,c1ccc2ncccc2c1 [QUINOLINE],2.03
18,Oc1ncnc2[nH]ncc12 [ALLOPURINOL],-0.44

row,Compound,logD
1,CNC(=C[N+](=O)[O-])NCCSCc1ccc(CN(C)C)o1 [RANITIDINE],-0.29
2,CC(=O)CCCCn1c(=O)c2c(ncn2C)n(C)c1=O [PENTOXIFYLLINE],0.29
3,Nc1nc(N)c2nc(-c3ccccc3)c(N)nc2n1,1.21
4,Brc1cnc2ccccc2c1,3.03
5,NC(=O)N/N=C/c1ccc([N+](=O)[O-])o1 [NITROFURAZONE],0.23
6,O=C1CN=C(c2ccccn2)c2cc(Br)ccc2N1 [BROMAZEPAM],1.65
7,COc1ccc2c3c1O[C@H]1[C@@H](O)C=C[C@H]4[C@@H](C2)N(C)CC[C@@]341 [CODEINE],0.23
8,CCN(CC)CCNC(=O)c1cc(S(C)(=O)=O)ccc1OC [TIAPRIDE],-0.09
9,CN1C(=O)C(O)N=C(c2ccccc2Cl)c2cc(Cl)ccc21 (stereo unspecified) [LORMETAZEPAM],2.72
10,CNS(=O)(=O)Cc1ccc2[nH]cc(CCN(C)C)c2c1,-1
11,CC(C)N(CCC(C(N)=O)(c1ccccc1)c1ccccn1)C(C)C (stereo unspecified) [DISOPYRAMIDE],-0.66
12,CSc1ncnc2c1ncn2[C@@H]1O[C@H](CO)[C@@H](O)[C@H]1O,0.09
13,O=[N+]([O-])c1ccc(/C=N/O)o1 [NIFUROXIME],1.28
14,CN1CCN(CC(=O)N2c3ccccc3C(=O)Nc3cccnc32)CC1 [PIRENZEPINE],-0.61
15,CN1CCC[C@H]1c1cccnc1 [NICOTINE],0.4
16,NS(=O)(=O)c1cc(C2(O)NC(=O)c3ccccc32)ccc1Cl (stereo unspecified) [CHLORTHALIDONE],1.11
17,Clc1cccc(Cl)c1N=C1NCCN1 [CLONIDINE],0.62
18,C[C@]12CC[C@H]3[C@@H](CCC4=CC(=O)CC[C@@]43C)[C@@H]1CC[C@@H]2O [TESTOSTERONE],3.29
